SMILES strings stand for the structures.

The assay concerns the target T1, recombinant human pancreatic GLK (Homo sapiens, UniProt P35557).
T1 sequence (P35557 1-465): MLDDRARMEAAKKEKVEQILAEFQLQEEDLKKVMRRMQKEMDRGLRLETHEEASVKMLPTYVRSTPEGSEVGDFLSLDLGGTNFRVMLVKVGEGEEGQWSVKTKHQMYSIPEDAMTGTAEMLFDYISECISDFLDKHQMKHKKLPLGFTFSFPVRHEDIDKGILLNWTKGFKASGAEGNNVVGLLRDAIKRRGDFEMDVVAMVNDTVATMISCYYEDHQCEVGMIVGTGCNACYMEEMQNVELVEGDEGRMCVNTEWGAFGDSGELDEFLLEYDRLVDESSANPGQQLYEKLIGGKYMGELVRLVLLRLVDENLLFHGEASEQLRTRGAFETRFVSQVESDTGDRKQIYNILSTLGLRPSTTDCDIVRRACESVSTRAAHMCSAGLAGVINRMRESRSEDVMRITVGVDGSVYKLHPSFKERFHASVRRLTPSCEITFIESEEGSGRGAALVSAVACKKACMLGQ
The experiment in a line: biochemical.
Regarding `N#Cc1cccc(Cl)c1-n1ncc2c(O[C@@H](COCCO)C(=O)Nc3ccc(Cl)cn3)ncnc21` [Example 174, (2S)-2-(1-(2-chloro-6-cyanophenyl)-1H-pyrazolo[3,4-d]pyrimidin-4-yloxy)-N-(5-chloropyridin-2-yl)-3-(2-hydroxyethoxy)propanamide], the EC50 is 230 nM.
The figure for `Cc1ccc(NC(=O)[C@H](CO[C@H](C)CO)Oc2ncnc3c2cnn3-c2c(Cl)cccc2C#N)nc1` [Example 175, (2S)-2-(1-(2-chloro-6-cyanophenyl)-1H-pyrazolo[3,4-d]pyrimidin-4-yloxy)-3-((R)-1-hydroxypropan-2-yloxy)-N-(5-methylpyridin-2-yl)propanamide] is 270 nM; for `Cc1ccc(NC(=O)[C@H](COCCO)Oc2ncnc3c2cnn3-c2c(Cl)cccc2C#N)nc1` [Example 176, (2S)-2-(1-(2-chloro-6-cyanophenyl)-1H-pyrazolo[3,4-d]pyrimidin-4-yloxy)-3-(2-hydroxyethoxy)-N-(5-methylpyridin-2-yl)propanamide] it is 380 nM; for `CC(C)OC[C@H](Oc1ncnc2c1cnn2-c1ncccc1Cl)C(=O)Nc1ccc(S(C)(=O)=O)cn1` [Example 177, (2S)-2-(1-(3-chloropyridin-2-yl)-1H-pyrazolo[3,4-d]pyrimidin-4-yloxy)-3-isopropoxy-N-(5-(methylsulfonyl)pyridin-2-yl)propanamide] it is 1500 nM.
As for `CC(C)OC[C@H](Oc1ncnc2c1cnn2-c1ncccc1Cl)C(=O)Nc1ccc(C(=O)N(C)C)cn1` [Example 178, 6-((2S)-2-(1-(3-chloropyridin-2-yl)-1H-pyrazolo[3,4-d]pyrimidin-4-yloxy)-3-isopropoxypropanamido)-N,N-dimethylnicotinamide], the figure is 4300 nM.
Turning to `Cc1ccc(C)c(-n2ncc3c(O[C@@H](COCCO)C(=O)Nc4ccc(Cl)cn4)ncnc32)c1` [Example 179, (2S)—N-(5-chloropyridin-2-yl)-2-(1-(2,5-dimethylphenyl)-1H-pyrazolo[3,4-d]pyrimidin-4-yloxy)-3-(2-hydroxyethoxy)propanamide], the EC50 came out at 620 nM.
The figure for `Cc1ccc(F)cc1-n1ncc2c(O[C@@H](COCCO)C(=O)Nc3ccc(Cl)cn3)ncnc21` [Example 180, (2S)—N-(5-chloropyridin-2-yl)-2-(1-(5-fluoro-2-methylphenyl)-1H-pyrazolo[3,4-d]pyrimidin-4-yloxy)-3-(2-hydroxyethoxy)propanamide] is 940 nM; for `Cc1ccc(NC(=O)[C@H](COCCO)Oc2ncnc3c2cnn3Cc2ccccc2)nc1` [Example 181, (S)-2-(1-benzyl-1H-pyrazolo[3,4-d]pyrimidin-4-yloxy)-3-(2-hydroxyethoxy)-N-(5-methylpyridin-2-yl)propanamide] it is 3300 nM; for `Cc1ccc(F)cc1-n1ncc2c(O[C@@H](COCCO)C(=O)Nc3ccc(C#N)cn3)ncnc21` [Example 182, (2S)—N-(5-cyanopyridin-2-yl)-2-(1-(5-fluoro-2-methylphenyl)-1H-pyrazolo[3,4-d]pyrimidin-4-yloxy)-3-(2-hydroxyethoxy)propanamide] it is 3000 nM.
For `Cc1ccc(C#N)cc1-n1ncc2c(O[C@@H](COCCO)C(=O)Nc3ccc(C#N)cn3)ncnc21` [Example 183, (2S)-2-(1-(5-cyano-2-methylphenyl)-1H-pyrazolo[3,4-d]pyrimidin-4-yloxy)-N-(5-cyanopyridin-2-yl)-3-(2-hydroxyethoxy)propanamide], the EC50 came to 7700 nM.
In the case of `Cc1ccc(NC(=O)[C@H](COCCO)Oc2ncnc3c2cnn3-c2cc(C#N)ccc2C)nc1` [Example 184, (2S)-2-(1-(5-cyano-2-methylphenyl)-1H-pyrazolo[3,4-d]pyrimidin-4-yloxy)-3-(2-hydroxyethoxy)-N-(5-methylpyridin-2-yl)propanamide], the EC50 was determined as 1500 nM.
With `Cc1ccc(C#N)cc1-n1ncc2c(O[C@@H](COCCO)C(=O)Nc3ccc(Cl)cn3)ncnc21` [Example 185, (2S)—N-(5-chloropyridin-2-yl)-2-(1-(5-cyano-2-methylphenyl)-1H-pyrazolo[3,4-d]pyrimidin-4-yloxy)-3-(2-hydroxyethoxy)propanamide], the EC50 is 3700 nM.
For `CCOC[C@H](Oc1ncnc2c1cnn2-c1cc(C)ccc1C)C(=O)Nc1ccc(C#N)cn1` [Example 186, (2S)—N-(5-cyanopyridin-2-yl)-2-(1-(2,5-dimethylphenyl)-1H-pyrazolo[3,4-d]pyrimidin-4-yloxy)-3-ethoxypropanamide], the EC50 was determined as 1800 nM.
Turning to `Cc1cnc(NC(=O)[C@H](COC2CCC2)Oc2ncnc3c2cnn3-c2cnccc2C)cn1` [Example 188, (2S)-3-cyclobutoxy-N-(5-methylpyrazin-2-yl)-2-(1-(4-methylpyridin-3-yl)-1H-pyrazolo[3,4-d]pyrimidin-4-yloxy)propanamide], the EC50 was 1100 nM.
With `C[C@H](CO)OC[C@H](Oc1ncnc2c1cnn2-c1ncccc1Cl)C(=O)Nc1ccc(C#N)cn1` [Example 189, (2S)-2-(1-(3-chloropyridin-2-yl)-1H-pyrazolo[3,4-d]pyrimidin-4-yloxy)-N-(5-cyanopyridin-2-yl)-3-((R)-1-hydroxypropan-2-yloxy)propanamide], the EC50 is 600 nM.
Turning to `C[C@H](CO)OC[C@H](Oc1ncnc2c1cnn2-c1ncccc1Cl)C(=O)Nc1ccc(Cl)cn1` [Example 190, (2S)—N-(5-chloropyridin-2-yl)-2-(1-(3-chloropyridin-2-yl)-1H-pyrazolo[3,4-d]pyrimidin-4-yloxy)-3-((R)-1-hydroxypropan-2-yloxy)propanamide], the EC50 was 370 nM.
The figure for `C[C@H](CO)OC[C@H](Oc1ncnc2c1cnn2-c1ncccc1Cl)C(=O)Nc1ccc(F)cn1` [Example 191, (2S)-2-(1-(3-chloropyridin-2-yl)-1H-pyrazolo[3,4-d]pyrimidin-4-yloxy)-N-(5-fluoropyridin-2-yl)-3-((R)-1-hydroxypropan-2-yloxy)propanamide] is 840 nM; for `C[C@@H](CO)OC[C@H](Oc1ncnc2c1cnn2-c1ncccc1Cl)C(=O)Nc1ccc(F)cn1` [Example 192, (2S)-2-(1-(3-chloropyridin-2-yl)-1H-pyrazolo[3,4-d]pyrimidin-4-yloxy)-N-(5-fluoropyridin-2-yl)-3-((S)-1-hydroxypropan-2-yloxy)propanamide] it is 360 nM.
Turning to `C[C@@H](CO)OC[C@H](Oc1ncnc2c1cnn2-c1ncccc1Cl)C(=O)Nc1ccc(Cl)cn1` [Example 193, (2S)—N-(5-chloropyridin-2-yl)-2-(1-(3-chloropyridin-2-yl)-1H-pyrazolo[3,4-d]pyrimidin-4-yloxy)-3-((S)-1-hydroxypropan-2-yloxy)propanamide], the EC50 was 3300 nM.
As for `Cc1ccc(NC(=O)[C@H](COCCO)Oc2ncnc3c2cnn3-c2ccccc2Cl)nc1` [Example 194, (2S)-2-(1-(2-chlorophenyl)-1H-pyrazolo[3,4-d]pyrimidin-4-yloxy)-3-(2-hydroxyethoxy)-N-(5-methylpyridin-2-yl)propanamide], the EC50 came to 580 nM.
Turning to `Cc1ccc(NC(=O)[C@H](COCCO)Oc2ncnc3c2nnn3-c2ccccc2Cl)nc1` [Example 195, (2S)-2-(3-(2-chlorophenyl)-3H-[1,2,3]triazolo[4,5-d]pyrimidin-7-yloxy)-3-(2-hydroxyethoxy)-N-(5-methylpyridin-2-yl)propanamide], the EC50 stood at 2000 nM.
Turning to `CCOC[C@H](Oc1ncnc2c1nnn2-c1ccccc1Cl)C(=O)Nc1ccc(C#N)cn1` [Example 197, (2S)-2-(3-(2-chlorophenyl)-3H-[1,2,3]triazolo[4,5-d]pyrimidin-7-yloxy)-N-(5-cyanopyridin-2-yl)-3-ethoxypropanamide], the EC50 turned out to be 600 nM.
`Cc1ccccc1-n1nnc2c(O[C@@H](COCCO)C(=O)Nc3ccc(Cl)cn3)ncnc21` [Example 198, (2S)—N-(5-chloropyridin-2-yl)-3-(2-hydroxyethoxy)-2-(3-o-tolyl-3H-[1,2,3]triazolo[4,5-d]pyrimidin-7-yloxy)propanamide]: the EC50 was 2200 nM.
In the case of `O=C(Nc1ccccn1)[C@H](COCCO)Oc1ncnc2c1cnn2-c1ccccc1C(F)(F)F` [Example 199, (2S)-3-(2-hydroxyethoxy)-N-(pyridin-2-yl)-2-(1-(2-(trifluoromethyl)phenyl)-1H-pyrazolo[3,4-d]pyrimidin-4-yloxy)propanamide], the EC50 amounted to 1100 nM.
For `C[C@H](CO)OC[C@H](Oc1ncnc2c1cnn2-c1ccccc1Cl)C(=O)Nc1ccccn1` [Example 200, (2S)-2-(1-(2-chlorophenyl)-1H-pyrazolo[3,4-d]pyrimidin-4-yloxy)-3-((R)-1-hydroxypropan-2-yloxy)-N-(pyridin-2-yl)propanamide], the EC50 amounted to 440 nM.
With `O=C(Nc1ccccn1)[C@H](COCCO)Oc1ncnc2c1cnn2-c1ccccc1Cl` [Example 201, (2S)-2-(1-(2-chlorophenyl)-1H-pyrazolo[3,4-d]pyrimidin-4-yloxy)-3-(2-hydroxyethoxy)-N-(pyridin-2-yl)propanamide], the EC50 came out at 650 nM.
With `O=C(Nc1ccc(Cl)cn1)[C@H](COCCO)Oc1ncnc2c1cnn2-c1cccc(Cl)c1Cl` [Example 202, (2S)—N-(5-chloropyridin-2-yl)-2-(1-(2,3-dichlorophenyl)-1H-pyrazolo[3,4-d]pyrimidin-4-yloxy)-3-(2-hydroxyethoxy)propanamide], the EC50 came to 340 nM.
As for `N#Cc1ccc(NC(=O)[C@H](COCCO)Oc2ncnc3c2cnn3-c2cccc(Cl)c2Cl)nc1` [Example 203, (2S)—N-(5-cyanopyridin-2-yl)-2-(1-(2,3-dichlorophenyl)-1H-pyrazolo[3,4-d]pyrimidin-4-yloxy)-3-(2-hydroxyethoxy)propanamide], the EC50 was found to be 830 nM.
